Data taken from patent US20110077270A1, “Compositions and Methods for Treating Ocular Inflammation with Lower Risk of Increased Intraocular Pressure” (priority 2009, published 2011).
Read-outs that look alike come from different tables or passages of the source.

How the values were obtained:
[1] = system: myocilin protein in CM of monkey TM cells; test: Myocilin protein in conditioned media of monkey TM cells (Western blot); assay type: cell-based, rhesus monkeys (Macaca mulatta); settings: for EC50: nine monkey TM cell strains; for Efficacy ± SE (weighted average; %): estimated efficacy at 300 nM for inducing myocilin protein expression, normalized to DEX (100%), nine experiments (one per strain)
Method: For each study, up to nine TM cell strains, each derived from an individual monkey, were tested separately. Cells were thawed and seeded into 12- or 48-well clusters (Falcon, BD Biosciences; 150,000 and 30,000 cells/well, respectively) in proliferation medium. When cells were 75% to 90% confluent proliferation medium was replaced by a 5:4 mixture of HESFM and Dulbecco's MEM, respectively, supplemented with 10% FBS, with added taurine, ascorbic acid phosphate, glutathione, and antibiotic as for proliferation medium (above), and with 2.72 g/L glucose and 1.72 g/L fructose. At confluence, the medium was changed to Dulbecco's MEM, containing 10% FBS^40, ascorbic acid phosphate, antibiotic, 2.72 g/L glucose and 1.72 g/L fructose. Cells were maintained as stable, confluent monolayers in this latter medium for 4 to 7 days before experimental treatments commenced.
All treatments, including media for vehicle control samples, contained a final DMSO concentration of 0.1% (v/v) across the concentration ranges selected. Treatments lasted 96 hours, with one exchange of medium on the third treatment day. The final 48-hr conditioned media (“CM”) samples were collected in their entirety (0.5 ml), centrifuged briefly to remove particulates, aliquoted, and stored at −20° C. until thawed for analysis.
Undiluted CM was combined with denaturing 4× sample buffer containing 2% SDS, and samples were loaded at equivalent protein content onto 4-20% Tris-HCl polyacrylamide gels (BioRad, Hercules, Calif.). After electrophoresis, proteins underwent wet transfer to […] nitrocellulose (BioRad) for immunoblotting. The filters were blocked with 5% (w/v) nonfat dry milk (BioRad) in Tris-buffered saline plus 0.02% (v/v) Tween-20 (“TBST”; Tween-20 from Calbiochem, San Diego, Calif.), and incubated with a 1:2000 dilution (from 200 μg/ml) of goat anti-recombinant human myocilin antibody (R&D Systems, Minneapolis, Minn.) in blocking buffer, overnight at 4° C. After washing in TBST, the filters were incubated with a 1:25,000 dilution (from 0.8 mg/ml) of horseradish peroxide-conjugated mouse anti-goat IgG (H+L) (Pierce Biotechnology, Rockford, Ill.) in blocking buffer, for 90 minutes at room temperature. After washing in TBST, the blots were developed in SuperSignal® West Dura Extended Duration Substrate (Pierce) for chemiluminescent detection. Bands corresponding to myocilin were digitally captured and stored using a FluorChem Imager (Alpha-Innotech, San Leandro, Calif.), with all blots receiving equal exposure/capture times. The imager system software was then used to calculate pixel density for equivalent rectangular areas incorporating the bands.
Data underwent Box-Cox transformations for one- or two-way analysis of variance (ANOVA), followed by the Tukey-Kramer test, using JMP software (SAS, Cary, N.C.). The specific transformations used for analyses are mentioned in the figure legends. For each set of triplicate samples from the individual monkey TM cell strains tested, Western blot densitometry values for myocilin protein detected in CM (as geometric means), and relative abundance of myocilin mRNA (as geometric means), were plotted as a function of drug concentrations. P-values less than 0.05 were considered statistically significant. Dose-response curve data were fitted to a re-parameterized four-parameter logistic equation using similar methodology to that previously described, and these equations permitted estimation of the EC50 values±95% confidence intervals, for each drug treatment.

[2] = system: human corneal epithelial cells (HCECs); test: IL-1β-stimulated cytokine production in primary human corneal epithelial cells (30-cytokine Luminex kit); settings: IL-1β-stimulated HCECs, 18 h
Method: Primary HCECs were seeded in 24-well plates. […] Each treatment was performed in triplicate. Media were collected and used for determination of cytokine content using a 30-cytokine Luminex kit.
Median fluorescence intensity (WI) was used to obtain the concentration of each cytokines in pg/ml based on the standard curve of each cytokine assayed by Luminex. The linear range of the standard curve for each cytokine was used for determination of cytokine concentration. Duplicate values for each sample were averaged. Data were expressed as mean±SD. Statistical analysis was performed using one-way ANOVA-Dunnett's test, and P<0.05 was considered statistically significant.

[3] = Primates, expression of myocilin protein, weighted averages, read-out: EC50 ± SE
[4] = Primates, 96 hours treatment, read-out: EC50, myocilin protein expression

Row | Structure (SMILES) | Myocilin protein released by cultured monkey TM cells compared to DEX ([1]; 3 to 300 nM) | Emax ([1]; Primates, read-out: Maximal efficacy for myocilin protein accumulation, relative to that observed after DEX treatment, computed across all nine TM cell strains) | EC50 [1, 3] | EC50 [1, 4] | Efficacy ± SE (weighted average; %) [1] | Potency of inhibition of IL-1β-stimulated production of GM-CSF, IL-8, and RANTES relative to dexamethasone [2] | Inhibition of IL-1β-stimulated cytokine production on 6 cytokines (IL-6, IL-7, MCP-1, TGF-α, TNF-α and VEGF) ([2]; comparable potency of both) | Myocilin protein level over control ([1]; 300 nM, one of the monkey TM cell strains, CM of second 48-hour period)
1 | Cc1ccc2c(NCC(O)(CC(C)(C)c3cc(F)cc4c3OCC4)C(F)(F)F)cccc2n1 (centres unmarked) [BOL-303242-X] | significantly lower levels of myocilin protein | ~50% | 21 ± 4.28 nM | 21 nM | 53.12 ± 2.20% | less potency compared to dexamethasone | significantly inhibited | 
2 | C[C@@H]1C[C@H]2[C@@H]3CCC4=CC(=O)C=C[C@]4(C)[C@@]3(F)[C@@H](O)C[C@]2(C)[C@@]1(O)C(=O)CO [Dex, dexamethasone, reference compound] |  |  | 14.6 ± 2.65 nM | 14.6 nM | 100 ± 6.09% |  |  | 1233%
